Measurements as given in patent publication US8933234B2, “O-amino benzonitrile compounds, method for preparing same and uses thereof” (Hangzhou Udragon Chemical Co., Ltd., priority 2011, dated 2015).

What was measured:
[1] = system: Diamondback moth; assay: Insecticidal effect on diamondback moth (cabbage leaf disc dip test); format: in vivo; conditions: for Insecticidal Effect (%) Diamondback moth (1 mg/L): leaf disc immersed 10 seconds, larvae, mortality; for mortality at 1 µg/mL: Plutella xylostella, foliar, 72 h, concentration of 1 mg/L, 3 days
Experimental: (§1) The compound to be tested dissolved in acetone and 1‰ Tween-80 solution, and was formulated to 50 ml of the test solution with desired concentration. The cabbage leaves having been cleaned and dried were made into leaf disc with diameter of 1 cm with hole puncher. The leaf disc were immersed in the drug liquid for 10 seconds and then removed, dried naturally, loaded in the culture dish. 10 […] diamondback moth larvae were introduced per dish and repeated for three times. After the treatment, the dishes were placed into a room with temperature of 20° C., relative humidity of 60-70% and without illumination to take an indoor culture. The survival of insects was surveyed and the mortality was calculated.

[2] = system: pink stem borer; assay: Insecticidal effect on pink stem borer (method of Test Example 1); format: in vivo; conditions: for Insecticidal Effect (%) pink stem borer (2 mg/L): leaf disc immersed 10 seconds, mortality
Experimental: [The procedure below names another organism; the source lists this organism under the same test.] as §1

| SMILES | Insecticidal Effect (%) Diamondback moth (1 mg/L) [1] [%] | Insecticidal Effect (%) pink stem borer (2 mg/L) [2] [%] | mortality at 1 µg/mL [1] [%] | mortality to pink stem borer in 3 days ([2]; concentration of 2 mg/L, 3 days) [%] |
| --- | --- | --- | --- | --- |
| Cc1cc(Cl)cc(C#N)c1NC(=O)c1cc(Br)nn1-c1ncc(C(F)(F)F)cc1Cl [Compound I-7] | 90 | 80 | – | – |
| N#Cc1cc(Cl)cc(Cl)c1NC(=O)c1cc(Br)nn1-c1ncccc1Cl [Compound I-4] | 100 | 98 | 100 | 98 |
| N#Cc1cc(Cl)cc(Cl)c1NC(=O)c1cc(Br)nn1-c1ncc(Cl)cc1Cl [Compound I-5] | 100 | 70 | 100 | – |
| N#Cc1cc(Cl)cc(Cl)c1NC(=O)c1cc(Br)nn1-c1ncc(Cl)cc1F [Compound I-6] | 100 | 90 | 100 | – |
| Cc1cc(Cl)cc(C#N)c1NC(=O)c1cc(Br)nn1-c1ncc(Cl)cc1F [Compound I-3] | 100 | 85 | 100 | – |
| Cc1cc(Cl)cc(C#N)c1NC(=O)c1cc(Br)nn1-c1ncccc1Cl [Compound I-1] | 50 | 40 | – | – |
| Cc1cc(Cl)cc(C#N)c1NC(=O)c1cc(Br)nn1-c1ncc(Cl)cc1Cl [Compound I-2] | 80 | 50 | – | – |
